The results in this text go back to US20110092547A1 (priority 2007, published 2011).

This test addresses T1, human DGAT1 (Homo sapiens, UniProt O75907).
T1 construct: made in house; host or cells: Sf9 insect cells (recombinant baculovirus); membrane fraction
T1 sequence (O75907 1-488): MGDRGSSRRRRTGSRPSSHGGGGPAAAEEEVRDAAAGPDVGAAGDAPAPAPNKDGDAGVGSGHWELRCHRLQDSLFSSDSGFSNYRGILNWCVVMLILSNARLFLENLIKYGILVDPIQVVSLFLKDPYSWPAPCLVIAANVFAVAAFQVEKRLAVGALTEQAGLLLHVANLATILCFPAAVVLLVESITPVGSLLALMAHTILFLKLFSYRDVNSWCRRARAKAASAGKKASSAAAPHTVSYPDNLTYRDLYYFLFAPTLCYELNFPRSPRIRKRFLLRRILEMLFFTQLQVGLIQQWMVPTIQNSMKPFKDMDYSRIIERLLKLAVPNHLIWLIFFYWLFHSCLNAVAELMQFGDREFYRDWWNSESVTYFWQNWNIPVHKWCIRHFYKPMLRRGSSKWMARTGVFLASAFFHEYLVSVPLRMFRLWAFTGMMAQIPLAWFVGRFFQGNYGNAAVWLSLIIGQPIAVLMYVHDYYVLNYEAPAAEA
The test is described as follows: Human enzyme assay, further developed assay (14C oleoyl CoA, 96 well plate). In kind it is biochemical. The conditions noted are these: human DGAT1 expressed in insect cell (sf9) membranes. Here is the method: The in vitro assay to identify DGAT1 inhibitors uses human DGAT1 expressed in insect cell membranes as the enzyme source (Proc. Natl. Acad. Sci. 1998, 95, 13018-13023). Briefly, sf9 cells were infected with recombinant baculovirus containing human DGAT1 coding sequences and harvested after 48 h. Cells were lysed by sonication and membranes isolated by centrifuging at 28000 rpm for 1 h at 4° C. on a 41% sucrose gradient. The membrane fraction at the interphase was collected, washed, and stored in liquid nitrogen.
In a further developed assay, DGAT1 activity was assayed by a modification of the method described by Coleman (Methods in Enzymology 1992, 209, 98-102). Compound at 0.00003-10 μM (final cone) was incubated with 25 μg/ml (final cone) membrane protein, 5 mM MgCl2, and 100 μM 1,2 dioleoyl-sn-glycerol in a total assay volume of 200 μl in a 96 well plate. The reaction was started by adding ^14C oleoyl coenzyme A (30 μM final concentration) and incubated at room temperature for 30 minutes. The reaction was stopped by adding 300 μl 2-propanol:heptane 7:1. Radioactive triolein product was separated into the organic phase by adding 200 μl heptane and 200 μl 0.1 M carbonate buffer pH 9.5. DGAT1 activity was quantified by counting aliquots of the upper heptane layer by liquid scintillography.
As to `CC1(C(=O)O)CCC(Oc2ccc(NC(=O)c3nnc(Nc4ccc(Cl)cc4Cl)o3)cn2)CC1` (stereo not drawn) [Example 67, 4-(5-((5-((2,4-dichlorophenyl)amino)-1,3,4-oxadiazole-2-carbonyl)amino)pyridin-2-yl)oxy-1-methylcyclohexane-1-carboxylic acid], the IC50 (as a rule, the midpoint of a concentration-inhibition curve) is 0.0072 µM.

In turn, `O=C(Nc1ccc(O[C@H]2CC[C@@H](C(=O)O)CC2)nc1)c1nnc(Nc2ccc(F)c(F)c2)o1` [Example 1, cis-4-[5-[[5-[(3,4-Difluorophenyl)amino]-1,3,4-oxadiazole-2-carbonyl]amino]pyridin-2-yl]oxycyclohexane-1-carboxylic acid] showed an IC50 of 0.011 µM.

In turn, `O=C(Nc1ccc(O[C@H]2CC[C@@H](C(=O)O)CC2)nc1)c1nnc(Nc2cccc(OC(F)(F)F)c2)o1` [Example 6, (1s,4s)-4-(5-(5-(3-(trifluoromethoxy)phenylamino)-1,3,4-oxadiazole-2-carboxamido)pyridin-2-yloxy)cyclohexanecarboxylic acid] displayed an IC50 of 0.023 µM.

Regarding `CC(C)c1ccc(Nc2nnc(C(=O)Nc3ccc(O[C@H]4CC[C@H](C(=O)O)CC4)nc3)o2)cc1` [Example 30, (1r,4r)-4-(5-(5-(4-isopropyl-phenylamino)-1,3,4-oxadiazole-2-carboxamido)pyridin-2-yloxy)cyclo-hexane-carboxylic acid], the midpoint of inhibition, the IC50, lay at 0.017 µM.

In turn, `O=C(Nc1cnc(O[C@H]2CC[C@@H](C(=O)O)CC2)c(Cl)c1)c1nnc(Nc2ccc(F)c(Cl)c2)o1` [Example 48, (1s,4s)-4-(3-Chloro-5-(5-(3-chloro-4-fluorophenylamino)-1,3,4-oxadiazole-2-carboxamido)pyridin-2-yloxy)cyclohexanecarboxylic acid] displayed an IC50 of 0.014 µM.

`COc1cc(NC(=O)c2nnc(Nc3ccc(F)c(F)c3)o2)cnc1O[C@H]1CC[C@@H](C(=O)O)CC1` [Example 57, (1s,4s)-4-(5-(5-(3,4-Difluorophenylamino)-1,3,4-oxadiazole-2-carboxamido)-3-methoxypyridin-2-yloxy)cyclohexanecarboxylic acid]: the IC50 is 0.41 µM.

`CC(C)(C)c1ccc(Nc2nnc(C(=O)Nc3ccc(O[C@H]4CC[C@H](C(=O)O)CC4)nc3)o2)cc1` [Example 31, (1r,4r)-4-(5-(5-(4-tert-butylphenyl-amino)-1,3,4-oxadiazole-2-carboxamido)pyridin-2-yloxy)cyclo-hexane-carboxylic acid] had an IC50 of 0.048 µM.

`O=C(Nc1ccc(O[C@H]2CC[C@@H](C(=O)O)CC2)nc1)c1nnc(Nc2cccc(Cl)c2Cl)o1` [Example 14, (1s,4s)-4-(5-(5-(2,3-dichlorophenylamino)-1,3,4-oxadiazole-2-carboxamido)pyridin-2-yloxy)cyclohexanecarboxylic acid] yielded a concentration for half-maximal inhibition (IC50) of 0.011 µM.

`O=C(Nc1cnc(O[C@H]2CC[C@@H](C(=O)O)CC2)cc1F)c1nnc(Nc2cc(F)c(F)cc2F)o1` [Example 58, (1s,4s)-4-(4-Fluoro-5-(5-(2,4,5-trifluorophenylamino)-1,3,4-oxadiazole-2-carboxamido)pyridin-2-yloxy)cyclohexanecarboxylic acid] showed an IC50 of 0.0061 µM.

For `O=C(Nc1ccc(O[C@H]2CC[C@@H](C(=O)O)CC2)nc1)c1nnc(Nc2cc(C(F)(F)F)c(F)cc2F)o1` [Example 5, (1s,4s)-4-(5-(5-(2,4-difluoro-5-(trifluoromethyl)phenylamino)-1,3,4-oxadiazole-2-carboxamido)pyridin-2-yloxy)cyclohexanecarboxylic acid], half-maximal inhibition (IC50) was put at 0.031 µM.

Consider `O=C(Nc1ccc(O[C@H]2CC[C@H](C(=O)O)CC2)nc1)c1nnc(Nc2ccc(F)c(F)c2)o1` [Example 32, (1r,4r)-4-(5-(5-(3,4-difluoro-phenylamino)-1,3,4-oxadiazole-2-carboxamido)pyridin-2-yloxy)cyclo-hexane-carboxylic acid], for which the IC50 is 0.026 µM.

Consider `O=C(Nc1ccc(O[C@H]2CC[C@@H](C(=O)O)CC2)nc1)c1nnc(Nc2ccc(F)c(C(F)(F)F)c2)o1` [Example 8, (1s,4s)-4-(5-(5-(4-fluoro-3-(trifluoromethyl)phenylamino)-1,3,4-oxadiazole-2-carboxamido)pyridin-2-yloxy)cyclohexanecarboxylic acid], for which the IC50 amounted to 0.01 µM.

Consider `Cc1ccc(Nc2nnc(C(=O)Nc3ccc(O[C@H]4CC[C@@H](C(=O)O)CC4)nc3)o2)cc1Cl` [Example 15, (1s,4s)-4-(5-(5-(3-chloro-4-methylphenylamino)-1,3,4-oxadiazole-2-carboxamido)pyridin-2-yloxy)cyclohexanecarboxylic acid], for which half-maximal inhibition (IC50) was put at 0.008 µM.

For the compound `O=C(Nc1ccc(O[C@H]2CC[C@H](C(=O)O)CC2)nc1)c1nnc(Nc2ccc(Cl)cc2Cl)o1` [Example 23, (1r,4r)-4-(5-(5-(2,4-dichloro-phenylamino)-1,3,4-oxadiazole-2-carboxamido)pyridin-2-yloxy)cyclo-hexane-carboxylic acid], the IC50 was found to be 0.021 µM.

`O=C(Nc1ccc(O[C@H]2CC[C@@H](C(=O)O)CC2)nc1)c1nnc(Nc2ccc(OC(F)(F)F)cc2)o1` [Example 11, (1s,4s)-4-(5-(5-(4-(trifluoromethoxy)phenylamino)-1,3,4-oxadiazole-2-carboxamido)pyridin-2-yloxy)cyclohexanecarboxylic acid]: 0.0072 µM corresponded to half-maximal inhibition (IC50).

As to `O=C(Nc1ccc(O[C@H]2CC[C@H](C(=O)O)CC2)nc1)c1nnc(Nc2ccc(F)c(C(F)(F)F)c2)o1` [Example 29, (1r,4r)-4-(5-(5-(4-fluoro-3-(trifluoro-methyl)phenylamino)-1,3,4-oxadiazole-2-carboxamido)pyridin-2-yloxy)cyclo-hexane-carboxylic acid], half-maximal inhibition (IC50) was put at 0.025 µM.

As to `COc1nc(O[C@H]2CC[C@@H](C(=O)O)CC2)ccc1NC(=O)c1nnc(Nc2ccc(F)c(Cl)c2)o1` [Example 52, (1s,4s)-4-(5-(5-(3-Chloro-4-fluorophenylamino)-1,3,4-oxadiazole-2-carboxamido)-6-methoxypyridin-2-yloxy)cyclohexanecarboxylic acid], half-maximal inhibition (IC50) was put at 0.023 µM.

For `Cc1cc(OC2CCC(C(=O)O)CC2)ncc1NC(=O)c1nnc(Nc2ccc(F)c(Cl)c2)o1` (stereo not drawn) [Example 41, (1s,4s)-4-(5-(5-(3-Chloro-4-fluorophenylamino)-1,3,4-oxadiazole-2-carboxamido)-4-methylpyridin-2-yloxy) cyclohexanecarboxylic acid], half-maximal inhibition (IC50) was put at 0.0034 µM.

`COc1cc(Cl)ccc1Nc1nnc(C(=O)Nc2ccc(O[C@H]3CC[C@@H](C(=O)O)CC3)nc2)o1` [Example 71, (1s,4s)-4-(5-(5-(4-Chloro-2-methoxyphenylamino)-1,3,4-oxadiazole-2-carboxamido)pyridin-2-yloxy)cyclohexanecarboxylic acid] displayed an IC50 of 0.034 µM.

`O=C(Nc1ccc(O[C@H]2CC[C@H](C(=O)O)CC2)nc1)c1nnc(Nc2ccc(F)c(Cl)c2)o1` [Example 24, (1r,4r)-4-(5-(5-(3-chloro-4-fluoro-phenylamino)-1,3,4-oxadiazole-2-carboxamido)pyridin-2-yloxy)cyclo-hexane-carboxylic acid] displayed an IC50 of 0.02 µM.

On to `CC1(C(=O)O)CCC(Oc2ccc(NC(=O)c3nnc(Nc4ccc(F)c(Cl)c4)o3)cn2)CC1` (mixture of isomers) [Example 69, 4-(5-(5-(3-Chloro-4-fluorophenylamino)-1,3,4-oxadiazole-2-carboxamido)pyridin-2-yloxy)-1-methylcyclohexanecarboxylic acid], for which 0.0043 µM corresponded to half-maximal inhibition (IC50).

`O=C(O)C[C@H]1CC[C@@H](Oc2ccc(NC(=O)c3nnc(Nc4ccc(F)c(F)c4)o3)cn2)CC1` [Example 36, 2-((1s,4s)-4-(5-(5-(3,4-difluorophenylamino)-1,3,4-oxadiazole-2-carboxamido)pyridin-2-yloxy)cyclohexyl)acetic acid] had an IC50 of 0.0096 µM.

The compound `O=C(Nc1ccc(O[C@H]2CC[C@@H](C(=O)O)CC2)nc1)c1nnc(Nc2ccc(Br)cc2Cl)o1` [Example 13, (1s,4s)-4-(5-(5-(4-bromo-2-chlorophenylamino)-1,3,4-oxadiazole-2-carboxamido)pyridin-2-yloxy)cyclohexanecarboxylic acid] yielded an IC50 of 0.011 µM.

In the case of `O=C(Nc1ccc(O[C@H]2CC[C@H](C(=O)O)CC2)nc1)c1nnc(Nc2cccc(Cl)c2Cl)o1` [Example 28, (1r,4r)-4-(5-(5-(2,3-dichloro-phenylamino)-1,3,4-oxadiazole-2-carboxamido)pyridin-2-yloxy)cyclo-hexane-carboxylic acid], half-maximal inhibition (IC50) was put at 0.016 µM.
